Measured values published in patent US20260265194A1, “COMPOUNDS FOR THE TREATMENT OF HIV” (THE TRUSTEES OF THE UNIVERSITY OF PENNSYLVANIA, priority 2022, published 2026).

Columns and labels:
HIV-1 AD8 = test: Single-round pseudovirus infection inhibition (luciferase), AD8 Env; type: cell-based; details: Cf2Th target cells expressing CD4 and CCR5
Procedure: (§1) Cell lines. 293T cells were grown in Dulbecco's modified Eagle's medium (DMEM) (Life Technologies, Wisent Inc.) supplemented with 10% fetal bovine serum (FBS) (Life Technologies, VWR) and 100 µg/ml of penicillin-streptomycin (Life Technologies, Wisent Inc.). Cf2Th cells stably expressing the human CD4 and CCR5 coreceptors for HIV-1 were grown in the same medium supplemented with 0.4 mg/ml of G418 and 0.2 mg/ml of hygromycin.
(§2) CD4-mimetic compound. The compounds of the disclosure (CD4mc) were dissolved in dimethyl sulfoxide (DMSO) at a stock concentration of 10 mM and diluted to the appropriate concentration for antiviral assays.
(§3) Production of recombinant pseudoviruses expressing luciferase. 293T cells were transfected with pSVIIIenv plasmids expressing Env from HIV-1 strain variants, the pCMVΔP1Δenv HIV-1 Gag-Pol packaging construct and the firefly luciferase-expressing HIV-1 vector at a 1:1:3 μg DNA ratio using effectene transfection reagent (Qiagen). […]
(§4) Virus infectivity and inhibition. […] Forty-eight h later, the target cells were lysed and the luciferase activity was measured.
(§5) For inhibition assays, the compounds to be tested were incubated at various concentrations with recombinant pseudoviruses for 1 h at 37° C. […] Forty-eight hours later, the target cells were lysed and the luciferase activity was measured. […]

HIV-1 JR-FL = test: Single-round pseudovirus infection inhibition (luciferase), JR-FL Env; type: cell-based; details: Cf2Th target cells expressing CD4 and CCR5
Procedure: as §1, §2, §3, §4, §5

BG505, cladeA HIV-1 = test: Single-round pseudovirus infection inhibition (luciferase), BG505 Env; type: cell-based; details: Cf2Th target cells expressing CD4 and CCR5
Procedure: as §1, §2, §3, §4, §5

[1] = test system: mutant HIV-1AD8 batches 130_3 and 130_C; test: Entry inhibition of CD4mc resistant AD8 variants; type: cell-based; details: up to 300 μM
Procedure: CD4mc resistant variants of Clade B virus AD8 were also selected by incubating infected host cells with increasing concentrations of BNM-III-170. […] These resistant strains of AD8 were sequenced to find specific mutations in the gp120 monomer that conferred the greatest resistance to BNM-III-170. Of these mutations examined, E64G, S375N, and I424T conferred the greatest resistance to treatment with compounds of the disclosure.
Each of the mutations individually were able to increase resistance to BNM-III-170, but were most resistant when combined as in HIV-1AD8 isolates 130_3 and 130_C. […] This was true with the individual mutations discussed above, as well as the original resistant mutants 130_3 and 130_C.

[2] = test system: Env on JR-FL infected primary T-cells; test: HIV+ plasma binding (Ab recognition of Env on infected cells); type: cell-based, HIV-1
Source text: (§6) The ability of the compounds of the disclosure to enhance Ab recognition of Env on the surface of infected cells and mediate ADCC was examined. Via HIV+ plasma binding, it was observed that CJF-III-192 was able to enhance Ab recognition to a greater degree than BNM-III-170 (7-fold vs 2-fold enhancement vs DMSO) for JR-FL infected primary T-cells. Additionally, when comparing the % ADCC activity of these two compounds, it was observed that CJF-III-192 could achieve up to 8% killing of HIVJR-FL-infected cells, while BNM-III-170 could only attain levels up to 5%. This effect on ADCC activity was more pronounced with HIVCH58TF-infected cells; 18% killing for CJF-III-192 vs. 8% killing with […].

HIVJR-FL-infected cells = test: ADCC killing of HIVJR-FL-infected cells; type: cell-based, HIV-1
Source text: as §6

HIVCH58TF-infected cells = test: ADCC killing of HIVCH58TF-infected cells; type: cell-based, HIV-1
Source text: as §6

Work on `CNCc1ccc2c(c1)C[C@H](CN=C(N)N)[C@H]2NC(=O)C(=O)Nc1ccc(Cl)c(F)c1.O=C(O)C(F)(F)F.O=C(O)C(F)(F)F` [BNM-III-170] yielded an IC50 (HIV-1 AD8) of 1.7 µM, an IC50 (HIV-1 JR-FL) of 12.2 µM and an IC50 (BG505, cladeA HIV-1) greater than 300 µM. The “entry inhibition of resistant mutants” value [1] was “completely resistant”, the “enhancement of Ab recognition vs DMSO” value [2] was 2 fold and the “% ADCC activity (killing)” value (HIVJR-FL-infected cells) was “up to 5%”. For the same compound, the “% ADCC activity (killing)” value (HIVCH58TF-infected cells) was 8%.
